Assay results reported in patent US11453664B2, “Thymoquinone/harmaline and related reaction products” (Ankh Life Sciences Limited, priority 2018, dated 2022).

Columns and labels:
[1] = system: MIN-6 cell line; assay: Glucose stimulated insulin secretion assay, Example 5; type: cell-based, mouse; settings: MIN-6, glucose 2, 10 and 20 mM, 1 hour
Procedure: In this test, a glucose stimulated insulin secretion assay was performed using the MIN-6 cell line and compounds C1 and C2 of Example 4. The test details and assay conditions are set forth below.
(§1) The cells were washed with KRB containing 0.1% BSA and starved for 1 hour in 2 mM glucose-KRB/BSA at 37° C. in 5% CO2. Following starvation, the cells were treated with or without the compounds at varying glucose concentrations of 2 mM, 10, mM, and 20 mM in KRB/BSA for 1 hour at 37° C. in 5% CO2. The amount of secreted mouse insulin was measured in the KRB/BSA incubation buffer using the mouse insulin ELISA kit from Mercer EXPert Assays. The cells were then lysed for protein quantification. The data presented in FIGS. 5-6 illustrate the secreted insulin test results for glucose and diazoxide, while FIGS. 7-9 (compound C1) and 10-12 (compound C2) illustrate the secreted insulin test results using C1 and C2. The data presented in FIGS. 7-12 are presented as the fold changes in the secreted insulin per milligram protein per hour, compared to the cell control.

[2] = system: MIN-6 cell line; assay: Glucose stimulated insulin secretion assay, Example 6; type: cell-based, mouse; settings: MIN-6, 100 nM, 10 mM of glucose, 1 hour
Procedure: In this test, a glucose stimulated insulin secretion assay was performed using the MIN-6 cell line and a compound mixture of compounds VIIID and VIIIF (MW about 540), referred to as C3. The test details and assay conditions are set forth below.
as §1, with “data is” for “data”, “13 (gliclazide)” for “5-6 illustrate the secreted insulin test results for glucose”, “14-16 (C3)” for “diazoxide, while FIGS. 7-9 (compound C1) and 10-12 (compound C2) illustrate the secreted insulin test results using C1 and C2. The data presented in FIGS. 7-12 are presented”, “change” for “changes”

[3] = system: MIN-6 cell line; assay: Glucose stimulated insulin secretion assay, Example 7; type: cell-based, mouse; settings: 2 hours
Procedure: In this test, another glucose stimulated insulin secretion assay was performed using two test compounds, namely C1 (MW about 378) and C3 (MW about 540). The MIN-6 cell line was used and the test details and assay conditions are set forth below.
The cells were revived and maintained in T-flasks. Upon reaching the required confluency, the cells were seeded in 96-well plates. The seeded cells were serum-starved in the presence of glucose for 30 minutes at 37° C. in 5% CO2. Following starvation, the cells were treated with or without the compounds at the varying glucose concentrations in KRB for 2 hours at 37° C. in 5% CO2. The cell supernatants were collected and tested for insulin secretion using the mouse insulin ELISA kit from Mercer EXPert Assays.

[4] = system: NOD mouse model of diabetes; assay: NOD mouse model of diabetes, TQ 725 as single agent; type: in vivo, mouse (NOD/ShiLtJ)
Procedure: This test was designed to evaluate the in vivo activity of the TQ-harmaline reaction product (referred to as “TQ 725”), which was a mixture of compounds I-IV and VI (MW about 378), V and VII (MW about 360), and VIIID and VIIIF (MW about 540), as single agent in the NOD mouse model of diabetes. […] The female NOD mice show evidence of diabetes onset by age week 12 and 70% presenting with diabetes (non-fasting plasma glucose higher than 250 mg/dl) by age week 20. The significant endpoint is assessment of weekly blood glucose levels.
The pancreatic tissues from the test mice were assayed by conventional insulin staining according to the following ratings: 0—no staining on islet cells; 1—of islets with positive stains, stain cells are minimal in number; 2—of islets with positive stain, stain cells are less than 50% of the cells; 3—of the islets with positive stains, stain cells are greater than 50% of the cells.
FIGS. 1 and 2 illustrate the body weight and blood glucose level results collected during the test. In each of these Figures, graph A refers to Group 1, the vehicle control (PO) QD to end; graph B refers to Group 2, 725.001 100 mg/kg days 1-27, followed by 400 mg/kg days 28 to end (PO); graph C refers to Group 3, 725.001 200 mg/kg (PO) QD to end; and graph D refers to Group 4, metformin 600 mg/kg (in H2O) Ad libitum days 1-8, followed by 600 mg/kg (PO) QD days 9 to end.

[5] = Subsequent investigations of activity of the components of TQ 725; settings: context: diabetes; no method given

For `CC1=NS(=O)(=O)c2cc(Cl)ccc2N1` [Diazoxide], the “effect on insulin secretion” value [1] was “significant inhibition of insulin secretion”.
In the case of `Cc1ccc(S(=O)(=O)NC(=O)NN2CC3CCCC3C2)cc1` (centres unmarked) [Gliclazide], the “effect on insulin secretion” value [2] is reported as “enhanced insulin secretion”, the “insulin secretion at the lower glucose concentration” value ([3]; MIN-6, glucose 2 mM, 100 μM) is reported as “enhanced insulin secretion was observed” and the “insulin secretion at the higher glucose concentration” value ([3]; MIN-6, glucose 25 mM) is reported as “saturation effect”.
With `CN(C)C(=N)N=C(N)N` [Metformin] the body weight ([4]; Group 4: 600 mg/kg, data not deemed reliable) was “trended downwardly” and the “insulin staining of pancreatic tissues, mean value” ([4]; Group 4: ad libitum days 1-8, 600 mg/kg PO days 9-56, rating scale 0-3) was 0.50.
For `COc1ccc2c(c1)=NC1C(/C=C3/C=C(C(C)C)C(=O)C=C3C)=NCCC=21` (centres unmarked) [VII], the “relative activity among the components of TQ 725” value [5] was “most active”.
In the case of `COc1ccc2c(c1)=NC1C(CC3(O)C=C(C(C)C)C(=O)C=C3C)=NCCC=21` (centres unmarked) [VI], the “relative activity among the components of TQ 725” value [5] is reported as “most active”.
